Data reported in patent US20050256081A1, “Tetracycline derivatives for the treatment of ocular pathologies” (priority 2004, published 2005).
Values joined by “and” are separate entries in the source; they are usually repeats but may differ in a detail not shown here. Equal values may be shown once.

Assays:
[1] = test system: corneal neovascularization; experiment: Inhibition of corneal neovascularization after silver nitrate/potassium nitrate corneal burn, graded by slit lamp photography and histology (Example 1); format: in vivo, rat; details: agent alone, topically applied twice a day; doxycycline about 1 to about 20 mg/ml, low molecular weight heparin about 10 mg/ml, triamcinolone about 4 mg/ml; compared to controls
Procedure: Artificial corneal burns were induced in rat eyes to determine the effects of doxycycline, steroids, and low molecular weight heparin, alone and in combinations, on corneal neovascularization.
The presence of new vessels (neovascularization) and the extent of new vessel formation was assessed by split lamp photography and histology. Inhibition of vessel proliferation was evaluated by measuring vessel progression from the outer cornea (corneal limbus) into the cornea. A numerical rating system was used to quantitate the degree of inhibition (+, ++, and +++ inhibition), with “+ inhibition” indicating inhibition one-third of the distance from the limbus of the cornea to the center; “++ inhibition” indicating inhibition two-thirds of the distance from the limbus to the center; “+++ inhibition” indicating complete inhibition of vessels between the limbus and the center; and the designation “± inhibition” indicating an intermediate degree of inhibition (e.g, less than +, ++, or +++) .

[2] = test system: corneal neovascularization; experiment: Silver nitrate cauterization corneal neovascularization model, two drug combinations (Example 3); format: in vivo, Long Evans rats; details: for effect on corneal neovascularization, individual agents: flurbiprofen 0.03% w/v, LMWH 10 mg/ml, administered as individual agents, data not shown
Description: Artificial corneal burns were induced in thirty-two eyes belonging to thirty-two Long Evans rats to determine the effects of doxycycline or another tetracycline derivative and low molecular weight heparin, doxycycline or another tetracycline derivative, and flurbiprofen, or flurbiprofen and low molecular weight heparin, on corneal neovascularization. All the eyes were examined to exclude any eyes with corneal scars and/or neovascularization prior to induction.
(§1) Neovascularization was induced in all eyes using silver nitrate cauterization. The animals were first anesthetized by intraperitoneal injection of a mixture of ketamine hydrochloride (25 mg/kg) with xylazine hydrochloride (5 mg/kg). The cornea was then anesthetized by a drop of 0.5% proparacaine and allowed to dry.
Group 1 (number of animals, n=8) received a 1:1 combination of 0.03% flurbiprofen sodium ophthalmic solution (Allergan, Irvine CA) and 10 mg/ml low molecular weight heparin (Enoxaparin, Aventis Pharmaceuticals Inc., Bridgewater N.J.); an actual concentration of 0.015% flurbiprofen with 5 mg/ml low molecular weight heparin. […] Group 3 (n=8) received a 1:1 combination of 20 mg/ml doxycycline and 10 mg/ml low molecular weight heparin; an actual concentration of 10 mg/ml doxycycline with 5 mg/ml low molecular weight heparin. Group 4 (n=8) received balanced salt solution (control). The drops were applied topically immediately after cauterization; treatments were administered two times per day for seven days.
(§2) The presence of new vessels (neovascularization) and the extent of new vessel formation was assessed by slit lamp photography and histology. Inhibition of vessel proliferation was evaluated by measuring vessel progression from the outer cornea (corneal limbus) into the comea. As previously described, it will be appreciated that any reduction of new vessel proliferation and/or regression of existing vessels is therapeutic, and that complete inhibition and/or regression is not required, and also that reduction includes regression of existing vessels.
The extent of corneal neovascularization was determined by slit lamp microscopy with photography (SL-7E, Topcon, Tokyo Japan) on day seven after cauterization. The animals were euthanized in a carbon dioxide chamber under deep general anesthesia. […]
Corneal neovascularization was assessed by scanning (Cano scan 9900F, Canon, Tokyo Japan) the slit lamp photographs into high resolution digital images. […] The percentage area of the cornea covered by the corneal scar in each eye was also determined. […]
Statistical analysis was performed using Statistical Analysis System (SPSS 11.5) software. The difference between the groups was determined using Mann-Whitney U Analysis test; a p value less than 0.05 was considered significant.

[3] = test system: corneal neovascularization; experiment: Silver nitrate cauterization corneal neovascularization model, single agents (Example 5); format: in vivo, Long Evans pigmented rats; details: for NV area compared to the control group (statistical significance): GLM with Tukey's studentized range test, significance at p≦0.05; for Percent Area Of Neovascularization Mean ± SD: topical two times daily for 7 days, 7th day, ascomycin 50 μg/ml, flurbiprofen 0.03%, doxycycline 20 mg/ml, LMWH 10 mg/ml, triamcinolone acetonide 4 mg/ml; for neovascularization on digitally enhanced slit lamp photograph: seven days after induction of corneal burn, FIG. 11
[4] = test system: corneal neovascularization; experiment: Silver nitrate cauterization corneal neovascularization model, doxycycline concentrations and pH (Example 4); format: in vivo, Long Evans pigmented rats; details: for Percent area of neovascularization (Mean ± SD): topical two times per day for seven days, n=6, monohydrate
Description: Thirty-six eyes belonging to thirty-six male Long Evans pigmented rats (200 g to 250 g) were divided into […] groups. Treated eyes were topically administered doxycycline at the following concentrations and having the indicated pH values: 0.05%^w/v (pH 3.3), 0.1%^w/v (pH 3.1), 1%^w/v (pH 2.3), 2%^w/v (pH 2.1), 2%^w/v (adjusted to pH of 7.4). One eye of each animal served as a treated eye and the other eye served as a non-treated control eye. Artificial corneal bums were induced. All the eyes were examined to exclude any eyes with corneal scars and/or neovascularization prior to induction.
as §1
as §2, with “cornea.” for “comea.”, “indudes” for “includes”
Neovascularization was evaluated by an examiner who was blinded as to the treatment groups to minimize the observer bias.
The animals were euthanized in a carbon dioxide chamber under deep general anesthesia. The eyes were enucleated and fixed in 10% formaldehyde.
Corneal neovascularization was assessed by scanning (Cano scan 9900F, Canon, Tokyo Japan) the slit lamp photographs into high resolution digital images. […] The percentage area of the cornea covered by the corneal scar in each eye was also determined. A drawing of corneal blood vessels was made to compare with digital photos and ensure that no vascular area was omitted during calculation of percent area.
Statistical analyses were performed using each animal as an experimental unit with Statistical Analysis System (SPSS 11.5) software. Kruscal-Vallis and Mann-Whitney U Analysis was conducted and treatment means were separated at p<0.05 with least significant difference (LSD) test. A p value <0.05 was considered significant.
For histopathologic evaluation, sedated animals were euthanized with inhaled CO2 and enucleation was performed immediately. […] The eyes were prepared for histological examination using 10% formaldehyde. […] The corneas were then soaked in xylene and paraffin, and later embedded in paraffin and cut at […] for staining with hematoxylin and eosin (H&E) for light microscopy.
Light microscopic examination was performed on every microscopic section.

low molecular weight heparin
inhibition of neovascularization [1]: + | effect on corneal neovascularization, individual agents [2]: did not significantly decrease corneal neovascularization | NV area compared to the control group (statistical significance) [3]: no statistically significant differences | Percent Area Of Neovascularization Mean ± SD [3]: 66.7%±9.9% and 66.7 ± 9.9%

CC(C(=O)[O-])c1ccc(-c2ccccc2)c(F)c1.O.O.[Na+] (racemic) [flurbiprofen, sodium (±)-2-(2-fluoro-4-biphenylyl)-propionate dihydrate]
effect on corneal neovascularization, individual agents [2]: did not significantly decrease corneal neovascularization | NV area compared to the control group (statistical significance) [3]: no statistically significant differences | neovascularization on digitally enhanced slit lamp photograph [3]: neovascularization is quite prominent | Percent Area Of Neovascularization Mean ± SD ([3]; dihydrate): 50.5%±18.7% | Percent Area Of Neovascularization Mean ± SD ([3]; listed as Flurbiprofen, dihydrate): 50.6 ± 18.7%

CC[C@@H]1/C=C(\C)C[C@H](C)C[C@H](OC)[C@H]2O[C@@](O)(C(=O)C(=O)N3CCCC[C@H]3C(=O)O[C@H](/C(C)=C/[C@@H]3CC[C@@H](O)[C@H](OC)C3)[C@H](C)[C@@H](O)CC1=O)[C@H](C)C[C@@H]2OC [ascomycin]
NV area compared to the control group (statistical significance) [3]: no statistically significant differences | Percent Area Of Neovascularization Mean ± SD [3]: 56.0%±22.4% | Percent Area Of Neovascularization Mean ± SD ([3]; listed as Ascomycin): 56.0 ± 22.4%

CC1c2cccc(O)c2C(=O)C2=C(O)C3(O)C(=O)C(C(N)=O)=C(O)C(N(C)C)C3C(O)C21.O (centres unmarked) [doxycycline, 4-(dimethylamino)-1,4,4a,5,5a,6,11,12a-octahydro3,5,10,12,12a-pentahydroxy-6-methyl-1,11-dioxo-2-naphthacenecarboxamide monohydrate]
inhibition of neovascularization [1]: + | effect on corneal neovascularization, individual agent ([2]; doxycycline administered at 10 mg/ml): not when administered at 10 mg/ml | effect on corneal neovascularization, individual agent ([2]; doxycycline administered at 20 mg/ml): did significantly inhibit | histology (H&E), new vessels and inflammatory cells ([4]; 0.05% doxycycline, FIG. 8A): new vessels and inflammatory cells through the entire corneal stroma | Percent area of neovascularization (Mean ± SD) ([4]; 0.05% w/v doxycycline, pH 3.3, listed as Doxycycline): 69.83 ± 17.98% | Percent area of neovascularization (Mean ± SD) ([4]; 0.05% w/v doxycycline, pH 3.3): 69.8±17.9% | histology (H&E), new vessels and inflammatory cells ([4]; 0.1% doxycycline, FIG. 8B): new vessels and inflammatory cells through the entire corneal stroma | Percent area of neovascularization (Mean ± SD) ([4]; 0.1% w/v doxycycline, pH 3.1, listed as Doxycycline): 64.48 ± 14.04% | Percent area of neovascularization (Mean ± SD) ([4]; 0.1% w/v doxycycline, pH 3.1): 64.5±14.0% | histology (H&E), new vessels and inflammatory cells ([4]; 1% doxycycline, FIG. 8C): inflammatory cells and there was neovascularization in the stroma far from the corneal burn | Percent area of neovascularization (Mean ± SD) ([4]; 1% w/v doxycycline, pH 2.3, listed as Doxycycline): 56.35 ± 20.84% | Percent area of neovascularization (Mean ± SD) ([4]; 1% w/v doxycycline, pH 2.3): 56.3±20.8% | histology (H&E), new vessels and inflammatory cells ([4]; 2% doxycycline adjusted to a substantially neutral pH, FIG. 8E): fewer inflammatory cells and less neovascularization in the stroma than eyes administered 1% doxycycline | histology (H&E), new vessels and inflammatory cells ([4]; 2% doxycycline not pH adjusted, FIG. 8D): fewer inflammatory cells and less neovascularization in the stroma than eyes administered 1% doxycycline | mean percentage area of neovascularization, 2% doxycycline pH neutralized compared with 2% doxycycline not adjusted for pH ([4]; 2% doxycycline, pH neutralized): significantly less | Percent area of neovascularization (Mean ± SD) ([4]; 2% w/v doxycycline adjusted to pH 7.4, listed as Doxycycline): 36.2 ± 4.3% | Percent area of neovascularization (Mean ± SD) ([4]; 2% w/v doxycycline adjusted to pH 7.4): 36.2±4.3% | Percent area of neovascularization (Mean ± SD) ([4]; 2% w/v doxycycline, pH 2.1 (not adjusted for pH), listed as Doxycycline): 54.78 ± 5.95% | Percent area of neovascularization (Mean ± SD) ([4]; 2% w/v doxycycline, pH 2.1 (not adjusted for pH)): 54.7±5.9% | NV area compared to the control group (statistical significance) [3]: significant reduction | neovascularization on digitally enhanced slit lamp photograph [3]: neovascularization is less prominent than in control group | Percent Area Of Neovascularization Mean ± SD ([3]; listed as Doxycycline, monohydrate): 35.5 ± 29.1% | Percent Area Of Neovascularization Mean ± SD ([3]; monohydrate): 35.5%±29.1%
